The target of the experiment is T1, kinase-domain human PKCι (Homo sapiens, UniProt P41743).
T1 construct: Recombinant, kinase-domain human PKCι is expressed and purified in-house; made in house
T1 sequence (P41743 254-522 limits assumed): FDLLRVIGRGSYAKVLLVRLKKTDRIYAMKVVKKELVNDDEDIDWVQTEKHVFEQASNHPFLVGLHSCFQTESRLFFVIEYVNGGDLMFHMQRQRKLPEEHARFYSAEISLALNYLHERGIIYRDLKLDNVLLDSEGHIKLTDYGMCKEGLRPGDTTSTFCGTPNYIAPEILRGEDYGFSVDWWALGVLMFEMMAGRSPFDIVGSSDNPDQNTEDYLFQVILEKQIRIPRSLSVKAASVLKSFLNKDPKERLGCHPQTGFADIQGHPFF
In words: PKCι IC50 IMAP fluorescence polarisation assay, kinase-domain enzyme. Type of experiment: biochemical. Conditions: kinase domain PKCi at 2 μM ATP; read-out: IC50 in IMAP assay against kinase domain PKCi (Activity). As for the experimental part:
Assays are based on the ability of PKCι to phosphorylate a commercially available peptide substrate in vitro. […] Recombinant, full-length human PKCι expressed in Sf21 insect cells is also commercially available. Recombinant, kinase-domain human PKCι is expressed and purified in-house.
The procedure below explains how dose response curves for inhibitors of PKCι are obtained.
Compounds to be tested are dissolved in 100% DMSO. […] 1 μl is plated into 384 well black low-binding flat bottomed assay plates which are used immediately. Dilutions and additions of compound to assay plates are carried out using Matrix WellMate® and Matrix PlateMate® Plus liquid handling systems.
The final concentration of peptide substrate in the assay is 100 nM. […] Relevant controls are included, namely no compound and no enzyme. […] The reaction is allowed to incubate for 60 minutes at room temperature, before the reaction is stopped and developed by the addition of 20 μl IMAP™ development reagent (Molecular Devices). IMAP development reagent consists of 0.25% (v/v) IMAP progressive binding reagent, 17% (v/v) IMAP progressive binding buffer A and 3% (v/v) IMAP progressive binding buffer B. The plates are then incubated for 2 hours at room temperature before being read using an appropriate plate reader, for example a Molecular Devices HT Analyst or a BMG Pherastar.

The text below walks through data of patent US10183950B2, “Thienopyrimidine inhibitors of atypical protein kinase C” (Cancer Research Technology Limited, priority 2011, dated 2019).

Some results are limits rather than exact numbers.

One may read the IC50 as the concentration at which inhibition is half-maximal. With `Cc1sc2nc(-c3ccncc3)nc(NC[C@H](C)N)c2c1C` [compound 37, (S)-N*1*-(5,6-Dimethyl-2-pyridin-4-yl-thieno[2,3-d]pyrimidin-4-yl)-propane-1,2-diamine], the IC50 is 1000 to 10000 nM.

On to `Cc1sc2nc(-c3ccncc3)nc(NC[C@@H](C)N)c2c1C` [compound 38, (R)-N*1*-(5,6-Dimethyl-2-pyridin-4-yl-thieno[2,3-d]pyrimidin-4-yl)-propane-1,2-diamine], for which the half-maximal inhibitory concentration (IC50) was 1000 to 10000 nM.

As for `Cc1c(C(N)=O)sc2nc(-c3ccncc3)nc(NCCN)c12` [compound 39, 4-(2-Amino-ethylamino)-5-methyl-2-pyridin-4-yl-thieno[2,3-d]pyrimidine-6-carboxylic acid amide], the IC50 was in the range of 100 to 1000 nM.

For the compound `CC(C)c1cc2c(NCCN)nc(-c3ccncc3)nc2s1` [compound 40, N*1*-(6-Isopropyl-2-pyridin-4-yl-thieno[2,3-d]pyrimidin-4-yl)-ethane-1,2-diamine], the half-maximal inhibitory concentration (IC50) was in the range of 1000 to 10000 nM.

In the case of `CC(C)c1cc2c(NC[C@@H](C)N)nc(-c3ccncc3)nc2s1` [compound 41, (R)-N*1*-(6-Isopropyl-2-pyridin-4-yl-thieno[2,3-d]pyrimidin-4-yl)-propane-1,2-diamine], the IC50 was 10000 to 40000 nM.

Turning to `CC[C@H](N)CNc1nc(-c2ccncc2)nc2sc3c(c12)CCCC3` [compound 68, (S)-N*1*-(2-Pyridin-4-yl-5,6,7,8-tetrahydro-benzo[4,5]thieno[2,3-d]pyrimidin-4-yl)-butane-1,2-diamine], the IC50 was 1000 to 10000 nM.

In the case of `CC1CCc2c(sc3nc(-c4ccncc4)nc(NC[C@@H](N)Cc4ccccc4)c23)C1` (stereo partly drawn) [compound 69, (S)-N*1*-(7-Methyl-2-pyridin-4-yl-5,6,7,8-tetrahydro-benzo[4,5]thieno[2,3-d]pyrimidin-4-yl)-3-phenyl-propane-1,2-diamine], the half-maximal inhibitory concentration (IC50) is 100 to 1000 nM.

With `Cc1c(C(N)=O)sc2nc(-c3ccncc3)nc(NC[C@@H](N)Cc3ccccc3)c12` [compound 74, 4-((S)-2-Amino-3-phenyl-propylamino)-5-methyl-2-pyridin-4-yl-thieno[2,3-d]pyrimidine-6-carboxylic acid amide], the IC50 was in the range of 100 to 1000 nM.

As to `CC(C)c1cc2c(NC[C@@H](N)Cc3ccccc3)nc(-c3ccncc3)nc2s1` [compound 75, (S)-N*1*-(6-Isopropyl-2-pyridin-4-yl-thieno[2,3-d]pyrimidin-4-yl)-3-phenyl-propane-1,2-diamine], the IC50 lay in the range of 1000 to 10000 nM.

For the compound `N[C@H](CNc1nc(-c2ccncc2)nc2sc3c(c12)CCCCCC3)Cc1ccccc1` [compound 76, (S)-3-Phenyl-N*1*-(2-pyridin-4-yl-5,6,7,8,9,10-hexahydro-11-thia-1,3-diaza-cycloocta[a]inden-4-yl)-propane-1,2-diamine], the 50% inhibitory concentration (IC50) lay in the range of 100 to 1000 nM.

For `NCCNc1nc(-c2ccncc2)nc2sc3c(c12)CCCCC3` [compound 84, N*1*-(2-pyridin-4-yl-6,7,8,9-tetrahydro-5H-10-thia-1,3-diaza-benzo[a]azulen-4-yl)-ethane-1,2-diamine], the half-maximal inhibitory concentration (IC50) fell in the range of 100 to 1000 nM.

`c1cc(-c2nc(N3CCNCC3)c3c4c(sc3n2)CCCCC4)ccn1` [compound 85, 4-Piperazin-1-yl-2-pyridin-4-yl-6,7,8,9-tetrahydro-5H-10-thia-1,3-diaza-benzo[a]azulene]: the IC50 is 100 to 1000 nM.

Regarding `c1cc(-c2nc(N3CCCNCC3)c3c4c(sc3n2)CCCCC4)ccn1` [compound 86, 4-[1,4]Diazepan-1-yl-2-pyridin-4-yl-6,7,8,9-tetrahydro-5H-10-thia-1,3-diaza-benzo[a]azulene], the half-inhibitory concentration (IC50) was in the range of 100 to 1000 nM.

In the case of `N[C@H](CNc1nc(-c2ccncc2)nc2sc3c(c12)CCCCC3)Cc1ccccc1` [compound 87, (S)-3-Phenyl-N*1*-(2-pyridin-4-yl-6,7,8,9-tetrahydro-5H-10-thia-1,3-diaza-benzo[a]azulen-4-yl)-propane-1,2-diamine], the half-maximal inhibitory concentration (IC50) fell in the range of 100 to 1000 nM.

With `C[C@H](N)CNc1nc(-c2ccncc2)nc2sc3c(c12)CCCCC3` [compound 88, (S)-N*1*-(2-Pyridin-4-yl-6,7,8,9-tetrahydro-5H-10-thia-1,3-diaza-benzo[a]azulen-4-yl)-propane-1,2-diamine], the IC50 was 100 to 1000 nM.

Turning to `C[C@@H](N)CNc1nc(-c2ccncc2)nc2sc3c(c12)CCCCC3` [compound 89, (R)-N*1*-(2-Pyridin-4-yl-6,7,8,9-tetrahydro-5H-10-thia-1,3-diaza-benzo[a]azulen-4-yl)-propane-1,2-diamine], the concentration for half-maximal inhibition (IC50) was in the range of 100 to 1000 nM.

Consider `Cc1sc2nc(-c3ccncc3)nc(NCCN)c2c1-c1ccccc1` [compound 91, N*1*-(6-Methyl-5-phenyl-2-pyridin-4-yl-thieno[2,3-d]pyrimidin-4-yl)-ethane-1,2-diamine], for which the IC50 lay within 1000 to 10000 nM.

For the compound `Cc1sc2nc(-c3ccncc3)nc(N3CCCNCC3)c2c1-c1ccccc1` [compound 92, 4-[1,4]Diazepan-1-yl-6-methyl-5-phenyl-2-pyridin-4-yl-thieno[2,3-d]pyrimidine], the IC50 lay within 1000 to 10000 nM.

As to `Brc1ccc(-c2csc3nc(-c4ccncc4)nc(N4CCCNCC4)c23)cc1` [compound 93, 5-(4-Bromo-phenyl)-4-[1,4]diazepan-1-yl-2-pyridin-4-yl-thieno[2,3-d]pyrimidine], the IC50 lay in the range of 1000 to 10000 nM.

Take `Cc1csc2nc(-c3ccncc3)nc(N3CCNCC3)c12` [compound 94, 5-Methyl-4-piperazin-1-yl-2-pyridin-4-yl-thieno[2,3-d]pyrimidine]: the 50% inhibitory concentration (IC50) is less than 100 nM.

As for `Cc1csc2nc(-c3ccncc3)nc(N3CCCNCC3)c12` [compound 95, 4-[1,4]Diazepan-1-yl-5-methyl-2-pyridin-4-yl-thieno[2,3-d]pyrimidine], the half-inhibitory concentration (IC50) was 100 to 1000 nM.

As for `NCCNc1nc(-c2ccncc2F)nc2sc3c(c12)CCCC3` [compound 97, N*1*-[2-(3-fluoro-pyridin-4-yl)-5,6,7,8-tetrahydro-benzo[4,5]thieno [2,3-d]pyrimidin-4-yl]-ethane-1,2-diamine], the IC50 was 1000 to 10000 nM.

As to `NCCNc1nc(-c2ccnc(F)c2)nc2sc3c(c12)CCCC3` [compound 98, N*1*-[2-(2-Fluoro-pyridin-4-yl)-5,6,7,8-tetrahydro-benzo[4,5]thieno[2,3-d]pyrimidin-4-yl]-ethane-1,2-diamine], the half-inhibitory concentration (IC50) is 10000 to 40000 nM.

Consider `C[C@H](N)CNc1nc(-c2ccncc2F)nc2sc3c(c12)CCCC3` [compound 99, (S)-N*1*-[2-(3-Fluoro-pyridin-4-yl)-5,6,7,8-tetrahydro-benzo[4,5]thieno[2,3-d]pyrimidin-4-yl]-propane-1,2-diamine], for which the IC50 lay in the range of 1000 to 10000 nM.

For the compound `C[C@@H](N)CNc1nc(-c2ccncc2F)nc2sc3c(c12)CCCC3` [compound 100, (R)-N*1*-[2-(3-Fluoro-pyridin-4-yl)-5,6,7,8-tetrahydro-benzo[4,5]thieno[2,3-d]pyrimidin-4-yl]-propane-1,2-diamine], the half-maximal inhibitory concentration (IC50) fell in the range of 1000 to 10000 nM.

Take `c1ccc(CN2CCN(c3nc(-c4ccncc4)nc4sc5c(c34)CCCC5)CC2)cc1` [compound 116, 4-(4-Benzyl-piperazin-1-yl)-2-pyridin-4-yl-5,6,7,8-tetrahydro-benzo[4,5]thieno[2,3-d]pyrimidine]: the IC50 fell in the range of 10000 to 40000 nM.

As to `Brc1ccc(CN2CCN(c3nc(-c4ccncc4)nc4sc5c(c34)CCCC5)CC2)cc1` [compound 117, 4-[4-(4-Bromo-benzyl)-piperazin-1-yl]-2-pyridin-4-yl-5,6,7,8-tetrahydro-benzo[4,5]thieno[2,3-d]pyrimidine], the 50% inhibitory concentration (IC50) is 10000 to 40000 nM.

With `c1cc(CN2CCN(c3nc(-c4ccncc4)nc4sc5c(c34)CCCC5)CC2)ccn1` [compound 118, 2-Pyridin-4-yl-4-(4-pyridin-4-ylmethyl-piperazin-1-yl)-5,6,7,8-tetrahydro-benzo[4,5]thieno[2,3-d]pyrimidine], the 50% inhibitory concentration (IC50) lay within 1000 to 10000 nM.

Consider `CCN1CCN(c2nc(-c3ccncc3)nc3sc4c(c23)CCCC4)CC1` [compound 119, 4-(4-Ethyl-piperazin-1-yl)-2-pyridin-4-yl-5,6,7,8-tetrahydro-benzo[4,5]thieno[2,3-d]pyrimidine], for which the IC50 is 1000 to 10000 nM.

Consider `c1ccc(CN2CCN(c3nc(-c4ccncc4)nc4sc5c(c34)CCCC5)CC2)nc1` [compound 120, 2-Pyridin-4-yl-4-(4-pyridin-2-ylmethyl-piperazin-1-yl)-5,6,7,8-tetrahydro-benzo[4,5]thieno[2,3-d]pyrimidine], for which the 50% inhibitory concentration (IC50) was in the range of 10000 to 40000 nM.

`FC(F)(F)c1ccc(CN2CCN(c3nc(-c4ccncc4)nc4sc5c(c34)CCCC5)CC2)cc1` [compound 121, 2-Pyridin-4-yl-4-[4-(4-trifluoromethyl-benzyl)-piperazin-1-yl]-5,6,7,8-tetrahydro-benzo[4,5]thieno[2,3-d]pyrimidine]: the IC50 was in the range of 10000 to 40000 nM.

On to `Clc1ccc(CN2CCN(c3nc(-c4ccncc4)nc4sc5c(c34)CCCC5)CC2)cc1` [compound 122, 4-[4-(4-Chloro-benzyl)-piperazin-1-yl]-2-pyridin-4-yl-5,6,7,8-tetrahydro-benzo[4,5]thieno[2,3-d]pyrimidine], for which the IC50 was 10000 to 40000 nM.
